Values of other authors as cited in publication PMC5526139 (Xenobiotica; the Fate of Foreign Compounds in Biological …, 2016).

Set-up: method as in Zhang et al., 2011
Conditions: ref Zhang et al., 2011

## CC(O)Cn1c(=O)c(Oc2ccc(F)cc2F)cc2cnc(NC(C)CO)nc21 (centres unmarked) [6-(2,4-difluorophenoxy)-2-[(1-hydroxypropan-2-yl)amino]-8-(2-hydroxypropyl)-7H,8H-pyrido[2,3-d]pyrimidin-7-one]
man
  half-life in Phase 1 clinical trial: 0.7 h
Prediction before the clinical trial
  predicted half-life in man: 6 h
